Assay results reported in the supplement of paper PMC10307832.

Legend:
Test in all cases: relative viability (nuclei count vs DMSO), 5 days (fraction); higher = more cells survive
[1] = compound: COc1cc2nccc(Oc3ccc(NC(=O)C4(C(=O)Nc5ccc(F)cc5)CC4)cc3)c2cc1OC [Cabozantinib] + C[C@@H](Oc1cc(-c2cnn(C3CCNCC3)c2)cnc1N)c1c(Cl)ccc(F)c1Cl [Crizotinib] (partner 1 µM)
How it was run: (§1)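 For relative viability, nuclei counts in treated wells were divided by those in vehicle wells. Lung cancer cell lines had been pin-tool dosed in 1536-well plates the day after seeding and cultured for 5 days, then fixed and stained in one step (final 0.05% Triton X-100, 1% formaldehyde, 1 ug/ml Hoechst) and imaged at 4×. Doses were one drug alone or a fixed anchor-drug dose plus five library-drug doses (not always all listed) in √10 steps, and values are duplicate-plate medians.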

Zosuquidar + Tozasertib = compound: O[C@@H](COc1cccc2ncccc12)CN1CCN([C@@H]2c3ccccc3[C@@H]3[C@H](c4ccccc42)C3(F)F)CC1 [Zosuquidar] + Cc1cc(Nc2cc(N3CCN(C)CC3)nc(Sc3ccc(NC(=O)C4CC4)cc3)n2)n[nH]1 [Tozasertib] (partner 0.1 µM)
How it was run: as §1

Kobe2602 + Phenformin = compound: C1=CC(=CC=C1NC(=S)NNC2=C(C=C(C=C2[N+](=O)[O-])C(F)(F)F)[N+](=O)[O-])F [Kobe2602] + N=C(N)NC(=N)NCCc1ccccc1 [Phenformin] (partner 250 µM)
How it was run: as §1

[2] = compound: COc1cc2nccc(Oc3ccc(NC(=O)C4(C(=O)Nc5ccc(F)cc5)CC4)cc3)c2cc1OC [Cabozantinib] + N=C(N)NC(=N)NCCc1ccccc1 [Phenformin] (partner 250 µM)
How it was run: as §1

Cell Line	relative viability ([1]; first compound 0.02 µM)	relative viability ([1]; first compound 0.06325 µM)	relative viability ([1]; first compound 0.2 µM)	relative viability ([1]; first compound 0.6325 µM)	relative viability ([1]; first compound 2 µM)	relative viability (Zosuquidar + Tozasertib; first compound 0.01 µM)	relative viability (Zosuquidar + Tozasertib; first compound 0.03162 µM)	relative viability (Zosuquidar + Tozasertib; first compound 0.1 µM)	relative viability (Zosuquidar + Tozasertib; first compound 0.3162 µM)	relative viability (Zosuquidar + Tozasertib; first compound 1 µM)	relative viability (Kobe2602 + Phenformin; first compound 0.2 µM)	relative viability (Kobe2602 + Phenformin; first compound 0.6325 µM)	relative viability (Kobe2602 + Phenformin; first compound 2 µM)	relative viability (Kobe2602 + Phenformin; first compound 6.325 µM)	relative viability (Kobe2602 + Phenformin; first compound 20 µM)	relative viability ([2]; first compound 0.02 µM)	relative viability ([2]; first compound 0.06325 µM)	relative viability ([2]; first compound 0.2 µM)	relative viability ([2]; first compound 0.6325 µM)	relative viability ([2]; first compound 2 µM)
201T	1.04	1.02	0.988	0.956	0.976	0.876	0.907	0.888	0.993	0.854	0.463	0.449	0.425	0.394	0.405	0.383	0.451	0.472	0.438	0.439
SK-LU-1	–	0.941	0.772	0.872	0.857	0.292	0.359	0.417	0.353	0.332	0.618	0.682	0.584	0.526	0.597	0.587	0.791	0.552	0.476	0.438
NCI-H1734	0.809	0.761	0.687	0.73	0.635	0.263	0.254	0.243	0.268	0.263	0.413	0.408	0.422	0.347	0.388	0.368	0.395	0.403	0.406	0.355
NCI-H1651	0.821	0.866	0.885	0.846	0.842	0.603	0.607	0.782	0.627	0.623	0.415	0.37	0.356	0.333	0.414	0.316	0.329	0.316	0.298	0.292
PC-3 [JPC-3]	1.07	1.1	–	0.919	0.967	0.844	0.835	0.879	0.824	0.897	0.489	0.508	0.525	0.464	0.502	0.491	0.505	–	0.457	0.462
NCI-H1915	0.923	0.904	0.888	0.896	0.996	0.406	0.453	0.447	0.461	0.405	0.366	0.38	0.37	0.366	0.361	0.364	0.389	0.374	0.373	0.362
COR-L23	0.73	0.791	0.716	0.621	0.544	0.196	0.224	0.188	0.215	0.187	0.469	0.453	0.427	0.463	0.422	0.433	0.438	0.413	0.443	0.408
ChaGo-K-1	1.24	1.3	1.18	1.13	1.09	0.227	0.217	0.261	0.204	0.227	0.564	0.574	0.523	0.463	0.463	0.424	0.519	0.469	0.513	0.501
HOP-62	0.821	1.06	1.14	0.89	0.902	0.363	0.312	0.396	0.341	0.308	0.644	0.693	0.66	0.698	0.603	0.706	0.777	0.741	0.693	0.697
NCI-H1975	1.09	1.05	0.948	1.09	0.83	0.74	0.775	1.01	0.803	0.787	0.433	0.442	0.427	0.379	0.388	0.408	0.462	0.386	0.423	0.399
BEN	1.12	1	0.868	0.895	0.767	0.482	0.489	0.503	0.563	0.431	0.264	0.295	0.302	0.246	0.25	0.251	0.259	0.284	0.268	0.274
EMC-BAC-2	0.841	0.779	0.781	0.817	0.827	0.278	0.33	0.285	0.274	0.261	0.575	0.591	0.508	0.538	0.553	0.475	0.589	0.582	0.516	0.476
NCI-H441	0.684	0.799	0.857	0.717	0.668	0.475	0.723	0.819	0.709	0.609	0.801	0.81	0.876	0.814	0.903	0.556	0.775	1.02	0.883	0.902
NCI-H727	0.934	0.866	0.786	1.03	0.896	0.675	0.484	0.45	0.439	0.401	0.594	0.559	0.535	0.52	0.633	0.447	0.617	0.477	0.495	0.528
LU99A	0.585	0.607	0.592	0.567	0.527	0.215	0.229	0.257	0.254	0.271	0.814	0.916	0.79	0.906	0.931	0.766	0.934	0.925	0.696	0.89
NCI-H2405	0.933	0.862	0.872	0.873	0.895	0.774	0.762	0.724	0.747	0.74	0.418	0.431	0.411	0.393	0.452	0.335	0.46	0.484	0.39	0.418
